Measurements as given in patent publication US20180311238A1, “Selective Agonist Of a6 Containing nAChRs” (Saniona A/S, priority 2017, published 2018).

What was measured:
[1] = molecular target: T1, human α3β4 nicotinic receptors (Homo sapiens, UniProt P30926+P32297); test: FLIPR fluorescence-based calcium assay, α3β4; format: cell-based; conditions: FLIPR calcium response relative to nicotine
T1 construct: expressed in transfected cells
Procedure: (§1) The level of agonist activity of 9-methyl-3-pyridin-3-yl-3,9-diaza-bicyclo[3.3.1]nonane was tested in functional fluorescence-based calcium assays using TE671 cells and HEK293 cells stably expressing human α6/α3β2β3^V273S, α3β4 and α4β2 nicotinic receptors.
(§2) Cells were plated on poly-D-lysine coated 384-well microtiter plates and were allowed to proliferate for 24 h. Dye loading was performed by incubating cells with 2 μM fluo-4/AM for 1.5 h at room temperature. Dye not taken up by cells was removed by aspiration followed by three washing cycles with 25 μl of NMDG Ringer buffer (in mM: 140 NMDG, 5 KCl, 1 MgCl2, 10 CaCl2, 10 HEPES, pH 7.4) after which the cells were kept in 25 μl of the same buffer. The microtiter plates were placed in a Fluoremetric Imaging Plate Reader (FLIPR) and subjected to test compound at various concentrations. Background subtracted compound-mediated calcium responses were normalized to 100 μM nicotine control responses and pEC50 as well as relative maximal efficacy values were determined.

[2] = molecular target: T2, nAChRs of the α4β2 subtype (Rattus norvegicus, UniProt P09483+P12390); test: In vitro inhibition of 3H-cytisine binding, rat cortex; conditions: ligand 3H-cytisine
T2 construct: from tissue; host or cells: rat cerebral cortex membranes
Procedure: The predominant subtype with high affinity for nicotine is comprised of α4 and β2 subunits. Here, the nicotine agonist ^3H-cytisine is used to selectively label nAChRs of the α4β2 subtype.
Preparations were performed at 0-4° C. Cerebral cortices from male Wistar rats (150-250 g) were homogenized for 20 sec in 15 ml Tris-HCl (50 mM, pH 7.4) containing 120 mM NaCl, 5 mM KCl, 1 mM MgCl2 and 2.5 mM CaCl2 using an Ultra-Turrax homogenizer. The homogenate was centrifuged at 27,000×g for 10 min. The supernatant was discarded and the pellet is re-suspended in fresh buffer and centrifuged a second time. The final pellet was re-suspended in fresh buffer (35 ml per g of original tissue) and used for binding assays.
Aliquots of 500 μl homogenate were added to 25 μl of test solution and 25 μl of ^3H-cytisine (1 nM, final concentration), mixed and incubated for 90 min at 0-4° C. Non-specific binding (5-10% of total binding) was determined using 100 μM (−)-nicotine. […]
Binding was terminated by rapid filtration onto Whatman GF/B glass fibre filters using a Brandel Cell Harvester, followed by seven washes with 2 ml ice-cold buffer. The amount of radioactivity on the filters was determined by conventional liquid scintillation counting using a Tri-Carb™ counter (PerkinElmer Life and Analytical Sciences).
Specific binding was calculated as total binding minus non-specific binding.

α4β2 cHS/cLS receptors = test: Oocyte two-electrode voltage-clamp electrophysiology, α4β2; format: cell-based; conditions: Xenopus laevis oocytes
Procedure: (§3) Two-electrode voltage-clamp electrophysiology recordings were done in Xenopus laevis oocytes injected with approximately 25 ng cRNA. After injection, oocytes were incubated at 17° C. for 2-3 days. During measurements, an oocyte was placed in a custom designed recording chamber where compound solutions are added directly to the oocyte via a glass capillary. Compound solutions were prepared on the day of measurement and applied to oocytes with a flowrate of 2.0 ml/min. All datasets were baseline subtracted and responses to individual applications were read as peak current amplitudes. Concentration response relationships describing compound effect at a fixed acetylcholine concentration were fitted to a monophasic Hill-equation. Potency (EC50) and efficacy values (fitted maximal current relative to maximal current of acetylcholine).

[3] = molecular target: T3, (Homo sapiens, UniProt P30926+P32297); test: Oocyte two-electrode voltage-clamp electrophysiology, α3β4; format: cell-based; conditions: Xenopus laevis oocytes
T3 construct: expressed in transfected cells; host or cells: Xenopus laevis oocytes injected with cRNA
Procedure: as §3

α7 [4] = molecular target: T4, α7 (Homo sapiens, UniProt P36544); test: Oocyte two-electrode voltage-clamp electrophysiology, α7; format: cell-based; conditions: Xenopus laevis oocytes, peak currents
T4 construct: expressed in transfected cells; host or cells: Xenopus laevis oocytes injected with cRNA
Procedure: as §3

[5] = molecular target: T5, neuromuscular α1-containing receptor subtypes (Homo sapiens, UniProt P02708+P07510+Q07001); test: FLIPR fluorescence-based calcium assay, TE671 cells; format: cell-based; conditions: FLIPR calcium response relative to nicotine
T5 construct: endogenous in cells; host or cells: TE671
Procedure: as §1, §2
The neuromuscular nAChRs subtype—composed of α1β1γδ subunits—can be studied in the human medulloblastoma cell line TE671, and the α1 subunit can be specifically labelled with ^3H-α-bungarotoxin.

α7 [6] = molecular target: α7 (Rattus norvegicus, UniProt Q05941); test: biochemical; format: binding
[7] = molecular target: T6, neuromuscular nAChRs subtype composed of α1β1γδ subunits (Homo sapiens, UniProt P02708+P07510+Q07001); test: biochemical; format: binding
T6 construct: endogenous in cells; host or cells: TE671
T6 sequence (P02708 21-457): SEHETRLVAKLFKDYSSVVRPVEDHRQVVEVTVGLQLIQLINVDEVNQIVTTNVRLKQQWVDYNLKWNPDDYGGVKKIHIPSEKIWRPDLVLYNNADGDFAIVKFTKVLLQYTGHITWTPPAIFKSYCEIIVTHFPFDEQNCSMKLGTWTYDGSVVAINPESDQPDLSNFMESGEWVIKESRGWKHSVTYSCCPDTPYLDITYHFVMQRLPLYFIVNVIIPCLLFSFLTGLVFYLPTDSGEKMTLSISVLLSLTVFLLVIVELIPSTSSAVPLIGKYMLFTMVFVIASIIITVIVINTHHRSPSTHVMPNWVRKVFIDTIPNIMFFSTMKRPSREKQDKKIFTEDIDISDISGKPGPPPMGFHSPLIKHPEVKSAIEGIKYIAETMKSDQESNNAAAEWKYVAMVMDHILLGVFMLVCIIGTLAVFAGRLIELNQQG
T6 sequence (Q07001 22-517): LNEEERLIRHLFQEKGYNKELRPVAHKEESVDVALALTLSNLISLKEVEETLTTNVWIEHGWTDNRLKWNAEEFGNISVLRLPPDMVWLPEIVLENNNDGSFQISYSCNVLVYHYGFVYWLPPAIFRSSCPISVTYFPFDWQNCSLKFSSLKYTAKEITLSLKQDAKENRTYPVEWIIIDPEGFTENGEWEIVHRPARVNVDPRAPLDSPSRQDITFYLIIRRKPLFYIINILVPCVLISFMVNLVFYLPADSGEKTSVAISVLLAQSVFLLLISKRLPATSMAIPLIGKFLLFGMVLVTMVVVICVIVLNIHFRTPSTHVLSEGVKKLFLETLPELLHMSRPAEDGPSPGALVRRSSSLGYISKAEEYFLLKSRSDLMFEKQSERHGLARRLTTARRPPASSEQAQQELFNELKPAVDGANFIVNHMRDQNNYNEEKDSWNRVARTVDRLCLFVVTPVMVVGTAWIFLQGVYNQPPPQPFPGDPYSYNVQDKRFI
T6 sequence (P07510 23-517): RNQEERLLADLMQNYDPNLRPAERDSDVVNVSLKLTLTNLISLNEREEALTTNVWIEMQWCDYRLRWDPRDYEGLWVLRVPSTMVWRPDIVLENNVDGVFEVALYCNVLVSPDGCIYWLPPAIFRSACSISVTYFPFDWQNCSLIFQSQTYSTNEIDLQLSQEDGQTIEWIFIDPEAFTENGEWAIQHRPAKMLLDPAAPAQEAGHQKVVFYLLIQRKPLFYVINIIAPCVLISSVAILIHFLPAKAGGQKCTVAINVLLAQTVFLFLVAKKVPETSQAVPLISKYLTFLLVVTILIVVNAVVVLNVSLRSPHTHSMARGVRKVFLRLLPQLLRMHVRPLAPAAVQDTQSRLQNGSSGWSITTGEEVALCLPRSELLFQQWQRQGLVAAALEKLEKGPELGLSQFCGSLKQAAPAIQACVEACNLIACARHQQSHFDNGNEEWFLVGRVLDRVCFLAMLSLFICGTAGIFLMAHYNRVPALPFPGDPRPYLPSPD
T6 sequence (P11230 24-501, further chain): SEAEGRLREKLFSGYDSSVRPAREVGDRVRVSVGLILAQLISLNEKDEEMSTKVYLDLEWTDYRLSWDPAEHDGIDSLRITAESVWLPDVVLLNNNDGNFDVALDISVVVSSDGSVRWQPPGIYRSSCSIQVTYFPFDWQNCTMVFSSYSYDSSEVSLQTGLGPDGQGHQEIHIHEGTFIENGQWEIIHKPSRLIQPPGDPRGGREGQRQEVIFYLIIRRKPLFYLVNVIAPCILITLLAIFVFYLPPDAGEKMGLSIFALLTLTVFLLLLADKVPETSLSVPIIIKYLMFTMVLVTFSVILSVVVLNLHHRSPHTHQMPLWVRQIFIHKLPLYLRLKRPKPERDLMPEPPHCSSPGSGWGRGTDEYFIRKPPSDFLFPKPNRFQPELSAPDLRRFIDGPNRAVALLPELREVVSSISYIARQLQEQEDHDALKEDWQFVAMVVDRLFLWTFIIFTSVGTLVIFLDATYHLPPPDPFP

T4 sequence (P36544 23-502): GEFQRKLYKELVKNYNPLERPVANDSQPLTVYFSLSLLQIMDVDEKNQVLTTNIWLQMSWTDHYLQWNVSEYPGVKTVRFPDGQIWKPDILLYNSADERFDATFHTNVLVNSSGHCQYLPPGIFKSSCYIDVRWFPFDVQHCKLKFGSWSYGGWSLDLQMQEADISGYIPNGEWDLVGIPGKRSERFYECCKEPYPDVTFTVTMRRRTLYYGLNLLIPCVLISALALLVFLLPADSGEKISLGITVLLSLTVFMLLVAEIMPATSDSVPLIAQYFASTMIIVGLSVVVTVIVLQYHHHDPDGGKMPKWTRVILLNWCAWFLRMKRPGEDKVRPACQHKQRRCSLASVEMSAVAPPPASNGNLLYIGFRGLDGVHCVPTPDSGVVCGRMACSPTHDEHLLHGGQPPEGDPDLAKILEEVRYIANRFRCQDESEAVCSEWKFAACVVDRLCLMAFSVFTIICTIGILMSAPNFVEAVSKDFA
Sequence of α7 (Rattus norvegicus, UniProt Q05941) (Q05941 23-502): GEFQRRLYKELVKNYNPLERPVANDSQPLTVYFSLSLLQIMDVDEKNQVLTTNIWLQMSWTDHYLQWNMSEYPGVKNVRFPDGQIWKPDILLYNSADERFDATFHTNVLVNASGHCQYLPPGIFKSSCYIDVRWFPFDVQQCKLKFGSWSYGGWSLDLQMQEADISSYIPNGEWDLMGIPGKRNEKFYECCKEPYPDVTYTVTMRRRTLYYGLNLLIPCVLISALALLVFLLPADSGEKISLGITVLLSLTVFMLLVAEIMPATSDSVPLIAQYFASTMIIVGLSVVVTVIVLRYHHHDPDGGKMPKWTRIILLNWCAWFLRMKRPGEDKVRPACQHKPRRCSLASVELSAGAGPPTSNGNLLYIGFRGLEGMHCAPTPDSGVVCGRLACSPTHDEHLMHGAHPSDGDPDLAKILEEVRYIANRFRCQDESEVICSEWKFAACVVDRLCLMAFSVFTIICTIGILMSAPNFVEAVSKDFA
T1 sequence (P32297 32-505): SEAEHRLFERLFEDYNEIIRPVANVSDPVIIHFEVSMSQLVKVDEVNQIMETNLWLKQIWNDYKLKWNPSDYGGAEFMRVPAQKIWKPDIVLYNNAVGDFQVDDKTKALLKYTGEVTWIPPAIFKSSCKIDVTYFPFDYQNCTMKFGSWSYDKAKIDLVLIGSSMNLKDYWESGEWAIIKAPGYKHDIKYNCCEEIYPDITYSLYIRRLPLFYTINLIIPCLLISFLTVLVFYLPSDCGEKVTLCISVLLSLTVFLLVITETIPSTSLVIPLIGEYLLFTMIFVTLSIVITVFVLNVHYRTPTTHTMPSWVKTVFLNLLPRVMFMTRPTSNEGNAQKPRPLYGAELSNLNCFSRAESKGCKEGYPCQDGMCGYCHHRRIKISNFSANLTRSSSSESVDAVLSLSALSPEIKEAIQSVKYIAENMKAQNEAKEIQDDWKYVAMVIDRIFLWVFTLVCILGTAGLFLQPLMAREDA
T1 sequence (P30926 22-498): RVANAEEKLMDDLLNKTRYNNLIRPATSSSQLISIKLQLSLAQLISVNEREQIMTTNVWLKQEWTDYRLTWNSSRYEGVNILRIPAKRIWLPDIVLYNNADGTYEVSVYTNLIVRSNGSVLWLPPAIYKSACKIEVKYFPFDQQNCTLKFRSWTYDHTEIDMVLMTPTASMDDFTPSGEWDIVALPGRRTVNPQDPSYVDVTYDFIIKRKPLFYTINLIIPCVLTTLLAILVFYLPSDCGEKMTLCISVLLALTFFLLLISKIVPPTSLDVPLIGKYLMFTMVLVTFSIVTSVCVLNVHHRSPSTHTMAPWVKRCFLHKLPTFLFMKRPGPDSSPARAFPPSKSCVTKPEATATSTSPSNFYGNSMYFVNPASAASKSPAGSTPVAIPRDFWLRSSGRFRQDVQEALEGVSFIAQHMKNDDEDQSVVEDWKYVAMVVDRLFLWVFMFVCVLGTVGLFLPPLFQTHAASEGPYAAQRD
T3 sequence (P32297 32-505): as the sequence (P32297 32-505) above
T3 sequence (P30926 22-498): as the sequence (P30926 22-498) above
T5 sequence (P02708 21-457): as the sequence (P02708 21-457) above
T5 sequence (P11230 24-501 partner): as the sequence (P11230 24-501, further chain) above
T5 sequence (P07510 23-517): as the sequence (P07510 23-517) above
T5 sequence (Q07001 22-517): as the sequence (Q07001 22-517) above

`CN1C2CCCC1CN(c1cccnc1)C2` [9-methyl-3-pyridin-3-yl-3,9-diaza-bicyclo[3.3.1]nonane] was tested, and the efficacy [1] was “practically no efficacy”, the Ki [2] was 3.1 nM and the efficacy (α4β2 cHS/cLS receptors) was “practically no efficacy”. For the same compound, the efficacy [3] was “practically no efficacy”, the EC50 (α7 [4]) was 13000 nM and the efficacy [5] was “practically no efficacy”. It also gave a Ki (α7 [6]) of 290 nM and a Ki [7] of 320 nM.
